In ChEMBL document CHEMBL1150470, “The synthesis and cognition enhancing effects of a series of dibenzoyl guanidines. Analogs of N,N-[[4-(aminocarbonyl)phenyl]carbonimidoyl]bis[benzamide]” (1992):
Activity calls are given as the source filed them. The calls are words filed in the database; no cut-off is given here.

What was measured:
Mus musculus [1] = test: Evaluated for hypoxic survival activity in mice after intraperitoneal administration at 25 mg/kg dose; 25-55; format: functional; settings: ip
Mus musculus [2] = test: Evaluated for hypoxic survival activity in mice after intraperitoneal administration at 10 mg/kg dose; format: functional; settings: ip
Mus musculus [3] = test: Evaluated for hypoxic survival activity in mice after intraperitoneal administration at 100 mg/kg dose; format: functional; settings: ip
Mus musculus [4] = test: The compound was evaluated for improvement of anoxic amnesia in mice after ip administration at 50-200 mg/kg dose; Inactive; format: functional, organism-based
Mus musculus [5] = test: The compound was evaluated for improvement of anoxic amnesia in mice after ip administration at 10 mg/kg dose; Inactive; format: functional, organism-based; set-up: dose 10 mg/kg
Mus musculus [6] = test: Evaluated for hypoxic survival activity in mice after intraperitoneal administration at 10 mg/kg dose; 40-55; format: functional; settings: ip
Mus musculus [7] = test: Evaluated for hypoxic survival activity in mice after intraperitoneal administration at 10 mg/kg dose; 50-80; format: functional; settings: ip
Mus musculus [8] = test: Evaluated for hypoxic survival activity in mice after intraperitoneal administration at 100 mg/kg dose; 5-45; format: functional; settings: ip
Mus musculus [9] = test: Evaluated for hypoxic survival activity in mice after intraperitoneal administration at 100 mg/kg dose; 95-95; format: functional; settings: ip
Mus musculus [10] = test: The compound was evaluated for improvement of anoxic amnesia in mice after ip administration at 50 mg/kg dose; 53, -8, 102; format: functional; settings: route intraperitoneal
Mus musculus [11] = test: Evaluated for hypoxic survival activity in mice after intraperitoneal administration at 100 mg/kg dose; 40-40; format: functional; settings: ip
Mus musculus [12] = test: Evaluated for hypoxic survival activity in mice after intraperitoneal administration at 50 mg/kg dose; 35-50; format: functional; settings: ip
Mus musculus [13] = test: The compound was evaluated for improvement of anoxic amnesia in mice after ip administration at 100 mg/kg dose; format: functional; settings: route intraperitoneal
Mus musculus [14] = test: Evaluated for hypoxic survival activity in mice after intraperitoneal administration at 50 mg/kg dose; format: functional; settings: ip
Mus musculus [15] = test: Evaluated for hypoxic survival activity in mice after intraperitoneal administration at 100 mg/kg dose; 15-50; format: functional; settings: ip
Mus musculus [16] = test: Evaluated for hypoxic survival activity in mice after po administration of 100 mg/kg dose; format: functional
Mus musculus [17] = test: Evaluated for hypoxic survival activity in mice after intraperitoneal administration at 100 mg/kg dose; 45-70; format: functional; settings: ip
Mus musculus [18] = test: The compound was evaluated for improvement of anoxic amnesia in mice after ip administration at 50 mg/kg dose; 33-76; format: functional; settings: route intraperitoneal
Mus musculus [19] = test: Evaluated for hypoxic survival activity in mice after intraperitoneal administration at 10 mg/kg dose; 45-55; format: functional; settings: ip
Mus musculus [20] = test: The compound was evaluated for improvement of anoxic amnesia in mice after ip administration at 25 mg/kg dose; format: functional; settings: route intraperitoneal
Mus musculus [21] = test: The compound was evaluated for improvement of anoxic amnesia in mice after ip administration at 50 mg/kg dose; format: functional; settings: route intraperitoneal
Mus musculus [22] = test: Evaluated for hypoxic survival activity in mice after intraperitoneal administration at 25 mg/kg dose; 55-65; format: functional; settings: ip
Mus musculus [23] = test: Evaluated for hypoxic survival activity in mice after intraperitoneal administration at 25 mg/kg dose; 5-55; format: functional; settings: ip
Mus musculus [24] = test: The compound was evaluated for improvement of anoxic amnesia in mice after ip administration at 10 mg/kg dose; format: functional; settings: route intraperitoneal
Mus musculus [25] = test: Evaluated for hypoxic survival activity in mice after intraperitoneal administration at 0.125 mg/kg dose; 60-80; format: functional; settings: ip
Mus musculus [26] = test: Evaluated for hypoxic survival activity in mice after intraperitoneal administration at 100 mg/kg dose; 30-95; format: functional; settings: ip
Mus musculus [27] = test: Evaluated for hypoxic survival activity in mice after intraperitoneal administration at 100 mg/kg dose; 35-50; format: functional; settings: ip
Mus musculus [28] = test: Evaluated for hypoxic survival activity in mice after intraperitoneal administration at 100 mg/kg dose; 65-80; format: functional; settings: ip
Mus musculus [29] = test: The compound was evaluated for improvement of anoxic amnesia in mice after ip administration at 10 mg/kg dose; 74-(-19); format: functional; settings: route intraperitoneal
Mus musculus [30] = test: Evaluated for hypoxic survival activity in mice after intraperitoneal administration at 10 mg/kg dose; 50-50; format: functional; settings: ip
Mus musculus [31] = test: Evaluated for hypoxic survival activity in mice after intraperitoneal administration at 100 mg/kg dose; 55-80; format: functional; settings: ip
Mus musculus [32] = test: The compound was evaluated for improvement of anoxic amnesia in mice after ip administration at 100 mg/kg dose; Inactive; format: functional, organism-based; set-up: dose 100 mg/kg

With NC(=O)c1ccc(N/C(=N\C(=O)c2ccc(F)cc2)NC(=O)c2ccc(Br)cc2)cc1 the survival at 25 mg/kg (Mus musculus [1]) was 40%.
COc1ccc(C(=O)/N=C(/NC(=O)c2ccc(OC)cc2)Nc2ccc(C(N)=O)cc2)cc1 gave a survival at 10 mg/kg (Mus musculus [2]) of 15%.
In the case of COc1ccc(C(=O)/N=C(/NC(=O)c2ccc(C)cc2)Nc2ccc(C(N)=O)cc2)cc1, the survival at 100 mg/kg (Mus musculus [3]) is reported as 43% and the Improvement (Mus musculus [4]) is reported as “inactive”.
With CN(C)CCOc1ccc(C(=O)N/C(=N/C(=O)c2ccccc2)Nc2ccc(C(N)=O)cc2)cc1 the Improvement (Mus musculus [5]) was “inactive” and the survival at 10 mg/kg (Mus musculus [6]) was 48%.
With Cc1cccc(C(=O)N/C(=N/C(=O)c2ccccc2)Nc2ccc(C(N)=O)cc2)c1 the survival at 100 mg/kg (Mus musculus [3]) was 25%.
With CCOc1cccc(C(=O)N/C(=N/C(=O)c2ccccc2)Nc2ccc(C(N)=O)cc2)c1 the survival at 10 mg/kg (Mus musculus [7]) was 67%.
Work on NC(=O)c1ccc(N/C(=N\C(=O)c2ccccc2)NC(=O)c2ccc([N+](=O)[O-])cc2)cc1 yielded a survival at 100 mg/kg (Mus musculus [8]) of 25%.
Work on NC(=O)c1ccc(N/C(=N\C(=O)c2ccccc2)NC(=O)c2cccc(Cl)c2)cc1 yielded a survival at 100 mg/kg (Mus musculus [9]) of 95% and an Improvement (Mus musculus [10]) of 49%.
With NC(=O)c1ccc(N/C(=N\C(=O)c2ccccc2)NC(=O)c2ccc(C(F)(F)F)cc2)cc1 the survival at 100 mg/kg (Mus musculus [11]) was 40%.
In the case of Cc1cccc(C(=O)/N=C(/NC(=O)c2cccc(C)c2)Nc2ccc(C(N)=O)cc2)c1, the survival at 50 mg/kg (Mus musculus [12]) is reported as 40% and the Improvement (Mus musculus [13]) is reported as 20%.
COc1ccc(C(=O)/N=C(/NC(=O)c2ccc(C(F)(F)F)cc2)Nc2ccc(C(N)=O)cc2)cc1 was tested, and the survival at 50 mg/kg (Mus musculus [14]) was 55%.
N#Cc1ccc(C(=O)N/C(=N/C(=O)c2ccccc2)Nc2ccc(C(N)=O)cc2)cc1 showed a survival at 100 mg/kg (Mus musculus [15]) of 38%.
Molecule NC(=O)c1ccc(N/C(=N\C(=O)c2ccccc2)NC(=O)c2ccccc2C(F)(F)F)cc1 has a survival at 10 mg/kg (Mus musculus [2]) of 5%.
Molecule NC(=O)c1ccc(N/C(=N\C(=O)c2ccccc2)NC(=O)c2ccccc2)cc1 has a survival at 100 mg/kg (Mus musculus [16]) of 48%, a survival at 100 mg/kg (Mus musculus [17]) of 57% and an Improvement (Mus musculus [18]) of 50%.
Molecule NC(=O)c1ccc(N/C(=N\C(=O)c2ccc(F)cc2)NC(=O)c2cccc(Cl)c2)cc1 has a survival at 10 mg/kg (Mus musculus [2]) of 25%.
With NC(=O)c1ccc(N/C(=N\C(=O)c2ccccc2)NC(=O)c2cccc(Br)c2)cc1 the survival at 10 mg/kg (Mus musculus [19]) was 50% and the Improvement (Mus musculus [20]) was 118%.
NC(=O)c1ccc(N/C(=N\C(=O)c2ccccc2)NC(=O)c2ccc(Br)cc2)cc1 gave an Improvement (Mus musculus [21]) of 12% and a survival at 25 mg/kg (Mus musculus [22]) of 60%.
NC(=O)c1ccc(N/C(=N\C(=O)c2ccccc2)NC(=O)c2ccc(F)cc2)cc1 gave a survival at 25 mg/kg (Mus musculus [23]) of 35%.
In the case of COc1ccc(C(=O)/N=C(/NC(=O)c2cccc(C)c2)Nc2ccc(C(N)=O)cc2)cc1, the survival at 10 mg/kg (Mus musculus [19]) is reported as 50% and the Improvement (Mus musculus [24]) is reported as 28%.
Molecule CNC(=O)Oc1ccc2c(c1)[C@]1(C)CCN(C)[C@@H]1N2C [PHYSOSTIGMINE] has a survival at 0.125 mg/kg (Mus musculus [25]) of 60%.
NC(=O)c1ccc(N/C(=N\C(=O)c2ccccc2)NC(=O)c2cccc([N+](=O)[O-])c2)cc1 gave a survival at 100 mg/kg (Mus musculus [26]) of 60%.
COc1ccc(C(=O)/N=C(/NC(=O)c2cccc(Cl)c2)Nc2ccc(C(N)=O)cc2)cc1 gave a survival at 10 mg/kg (Mus musculus [2]) of 15%.
For COc1ccc(C(=O)/N=C(/NC(=O)c2ccc(F)cc2)Nc2ccc(C(N)=O)cc2)cc1, the survival at 100 mg/kg (Mus musculus [27]) was 42% and the Improvement (Mus musculus [4]) was “inactive”.
CC(C)(C)c1ccc(C(=O)N/C(=N/C(=O)c2ccccc2)Nc2ccc(C(N)=O)cc2)cc1 gave a survival at 100 mg/kg (Mus musculus [28]) of 72%.
With COc1ccc(C(=O)N/C(=N/C(=O)c2ccccc2)Nc2ccc(C(N)=O)cc2)cc1 the Improvement (Mus musculus [29]) was 28% and the survival at 10 mg/kg (Mus musculus [30]) was 50%.
For NC(=O)c1ccc(N/C(=N\C(=O)c2ccccc2)NC(=O)c2cccc(C(F)(F)F)c2)cc1, the survival at 10 mg/kg (Mus musculus [2]) was 15%.
With NC(=O)c1ccc(N/C(=N\C(=O)c2ccc(F)cc2)NC(=O)c2cccc(F)c2)cc1 the survival at 100 mg/kg (Mus musculus [31]) was 68% and the Improvement (Mus musculus [32]) was “inactive”.
With Cc1ccc(C(=O)N/C(=N/C(=O)c2ccccc2)Nc2ccc(C(N)=O)cc2)cc1 the survival at 10 mg/kg (Mus musculus [2]) was 5%.
NC(=O)c1ccc(N/C(=N\C(=O)c2cccc(C(F)(F)F)c2)NC(=O)c2cccc(C(F)(F)F)c2)cc1 gave a survival at 100 mg/kg (Mus musculus [3]) of 5%.
